Read-outs that look alike come from different tables or passages of the source.
How the values were obtained:
human SGLT2 = human SGLT2 (Homo sapiens (Human), UniProt P31639); experiment: Inhibitory effects on human SGLT2 activities (14C-AMG uptake in CHO cells expressing hSGLT2); format: cell-based; conditions: CHO cells stably expressing hSGLT2, 37° C., 2 h
Protocol: Human SGLT2 (hSGLT2) gene was amplified by PCR from cDNA-Human Adult Normal Tissue Kidney (Invitrogen). The hSGLT2 sequence was cloned into pcDNA3.1(+) for mammalian expression and were stably transfected into chinese hamster ovary (CHO) cells. SGLT2-expressing clones were selected based on resistance to G418 antibiotic (Geneticin) and activity in the ^14C-α-methyl-D-glucopyranoside (^14C-AMG) uptake assay.
For sodium-dependent glucose transport assay, cells expressing hSGLT2 were seeded into a 96-well culture plate at a density of 5×10^4 cells/well in RPMI medium 1640 containing 10% fetal bovine serum. The cells were used 1 day after plating. They were incubated in pretreatment buffer (10 mM HEPES, 5 mM Tris, 140 mM choline chloride, 2 mM KCl, 1 mM CaCl2, and 1 mM MgCl2, pH 7.4) at 37° C. for 10 min. They were then incubated in uptake buffer (10 mM HEPES, 5 mM Tris, 140 mM NaCl, 2 mM KCl, 1 mM CaCl2, 1 mM MgCl2, and 1 mM ^14C-nonlabeled AMG pH 7.4) containing ^14C-labeled AMG (8 μM) and the inventive compound or dimethyl sulfoxide (DMSO) vehicle at 37° C. for 2 h. Cells were washed twice with washing buffer (pretreatment buffer containing 10 mM AMG at room temperature) and then the radioactivity was measured using a liquid scintillation counter. IC50 was determined by nonlinear regression analysis using GraphPad PRISM [Katsuno, K. et al. J. Pharmacol. Exp. Ther. 2007, 320, 323-330; Han, S. et al. Diabetes, 2008, 57, 1723-1729].

[1] = not given; remark: listed apart in the source

Chain of human SGLT2 (P31639 whole entry): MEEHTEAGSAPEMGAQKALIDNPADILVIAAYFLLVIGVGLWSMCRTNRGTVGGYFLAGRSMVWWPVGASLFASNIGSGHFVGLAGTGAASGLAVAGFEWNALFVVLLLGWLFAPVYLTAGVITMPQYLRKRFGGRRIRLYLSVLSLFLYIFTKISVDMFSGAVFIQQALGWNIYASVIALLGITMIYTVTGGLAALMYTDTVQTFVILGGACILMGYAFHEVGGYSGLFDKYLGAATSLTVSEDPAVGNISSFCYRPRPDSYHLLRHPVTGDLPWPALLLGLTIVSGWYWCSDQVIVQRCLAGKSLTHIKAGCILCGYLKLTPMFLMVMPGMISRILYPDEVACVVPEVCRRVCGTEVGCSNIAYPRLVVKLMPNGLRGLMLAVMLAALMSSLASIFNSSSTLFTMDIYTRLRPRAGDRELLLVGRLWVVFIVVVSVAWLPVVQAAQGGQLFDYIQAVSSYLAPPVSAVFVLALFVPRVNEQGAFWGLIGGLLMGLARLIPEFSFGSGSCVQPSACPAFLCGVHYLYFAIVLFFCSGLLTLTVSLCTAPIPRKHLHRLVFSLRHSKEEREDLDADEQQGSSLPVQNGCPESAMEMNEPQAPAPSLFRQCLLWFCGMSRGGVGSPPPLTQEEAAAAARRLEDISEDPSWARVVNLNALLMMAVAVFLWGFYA

| SMILES | IC50 (human SGLT2) [nM] | also measured |
| --- | --- | --- |
| CCc1ccc(Cc2cc3c(cc2Cl)OCCCCOC[C@H]2O[C@@H]3[C@H](O)[C@@H](O)[C@@H]2O)cc1 [Example 8, (8R,9S,10R,11R,12S)-15-Chloro-14-(4-ethylbenzyl)-2,3,4,5,7,8,9,10,11,12-decahydro-8,12-epoxybenzo[g][1,6]dioxacyclotetradecine-9,10,11-triol] | 1.4 | – |
| CCOc1ccc(Cc2cc3c(cc2Cl)OCCCCCOC[C@H]2O[C@@H]3[C@H](O)[C@@H](O)[C@@H]2O)cc1 [Example 3, (9R,10S,11R,12R,13S)-16-Chloro-15-(4-ethoxybenzyl)-3,4,5,6,8,9,10,11,12,13-decahydro-2H-9,13-epoxybenzo[h][1,7]dioxacyclopentadecine-10,11,12-triol] | 0.899 | – |
| CCOc1ccc(Cc2cc3c(cc2Cl)OCCCCCOC[C@H]2O[C@@H]3[C@H](OCc3ccccc3)[C@@H](OCc3ccccc3)[C@@H]2OCc2ccccc2)cc1 | – | ring closure, isolated yield (from CCOc1ccc(Cc2cc([C@@H]3O[C@H](COCCCCCI)[C@@H](OCc4ccccc4)[C@H](OCc4ccccc4)[C@H]3OCc3ccccc3)c(O)cc2Cl)cc1, ether bond, 13-membered ring, K2CO3/18-crown-6, toluene, 10.0 mM, 25.0 °C): 64%; ring closure, yield of all isomers ([1]; from CCOc1ccc(Cc2cc([C@@H]3O[C@H](COCCCCCI)[C@@H](OCc4ccccc4)[C@H](OCc4ccccc4)[C@H]3OCc3ccccc3)c(O)cc2Cl)cc1, ether bond, potassium carbonate / 18-crown-6, toluene, 10.0 mM, 25.0 °C, 16.0 h): 64% |
| CCOc1ccc(Cc2cc3c(cc2Cl)OCCCCOC[C@H]2O[C@@H]3[C@H](O)[C@@H](O)[C@@H]2O)cc1 [Example 2, (8R,9S,10R,11R,12S)-15-Chloro-14-(4-ethoxybenzyl)-2,3,4,5,7,8,9,10,11,12-decahydro-2H-8,12-epoxybenzo[g][1,6]dioxacyclotetradecine-9,10,11-triol] | 2.27 | – |
| CCOc1ccc(Cc2cc3c(cc2Cl)OCC=CCOC[C@H]2O[C@@H]3[C@H](OC(C)=O)[C@@H](OC(C)=O)[C@@H]2OC(C)=O)cc1 | – | ring closure, isolated yield (from C=CCOC[C@H]1O[C@@H](c2cc(Cc3ccc(OCC)cc3)c(Cl)cc2OCC=C)[C@H](OC(C)=O)[C@@H](OC(C)=O)[C@@H]1OC(C)=O, rcm bond, 12-membered ring, Grubbs II (20 mol%), DCM, 5.0 mM, 60.0 °C): 23%; ring closure, yield of all isomers ([1]; from C=CCOC[C@H]1O[C@@H](c2cc(Cc3ccc(OCC)cc3)c(Cl)cc2OCC=C)[C@H](OC(C)=O)[C@@H](OC(C)=O)[C@@H]1OC(C)=O, rcm bond, Grubbs 2nd generation catalyst, dichloromethane, 5.0 mM, 60.0 °C, 72.0 h): 23% |
| CCOc1ccc(Cc2cc3c(cc2Cl)OCC=CCOC[C@H]2O[C@@H]3[C@H](OCc3ccccc3)[C@@H](OCc3ccccc3)[C@@H]2OCc2ccccc2)cc1 | – | ring closure, isolated yield (from C=CCOC[C@H]1O[C@@H](c2cc(Cc3ccc(OCC)cc3)c(Cl)cc2OCC=C)[C@H](OCc2ccccc2)[C@@H](OCc2ccccc2)[C@@H]1OCc1ccccc1, rcm bond, 12-membered ring, Grubbs II (11 mol%), DCM, 9.6 mM, 60.0 °C): 26%; ring closure, yield of all isomers ([1]; from C=CCOC[C@H]1O[C@@H](c2cc(Cc3ccc(OCC)cc3)c(Cl)cc2OCC=C)[C@H](OCc2ccccc2)[C@@H](OCc2ccccc2)[C@@H]1OCc1ccccc1, rcm bond, Grubbs 2nd generation catalyst, dichloromethane, 9.6 mM, 60.0 °C, 16.0 h): 26% |
| CCOc1ccc(Cc2cc3c(cc2Cl)OCCCCCCOC[C@H]2O[C@@H]3[C@H](O)[C@@H](O)[C@@H]2O)cc1 [Example 6, (10R,11S,12R,13R,14S)-17-Chloro-16-(4-ethoxybenzyl)-2,3,4,5,6,7,9,10,11,12,13,14-dodecahydro-10,14-epoxybenzo[i][1,8]dioxacyclohexadecine-11,12,13-triol] | 3.63 | – |
| CCOc1ccc(Cc2cc3c(cc2Cl)OC[C@H]2C[C@H]2COC[C@H]2O[C@@H]3[C@H](OCc3ccccc3)[C@@H](OCc3ccccc3)[C@@H]2OCc2ccccc2)cc1 | – | ring closure, isolated yield (from CCOc1ccc(Cc2cc([C@@H]3O[C@H](CO)[C@@H](OCc4ccccc4)[C@H](OCc4ccccc4)[C@H]3OCc3ccccc3)c(OC[C@H]3C[C@H]3CI)cc2Cl)cc1, ether bond, 12-membered ring, NaH, DMF, 47.0 mM, 25.0 °C): 63%; ring closure, yield of all isomers ([1]; from CCOc1ccc(Cc2cc([C@@H]3O[C@H](CO)[C@@H](OCc4ccccc4)[C@H](OCc4ccccc4)[C@H]3OCc3ccccc3)c(OC[C@H]3C[C@H]3CI)cc2Cl)cc1, ether bond, sodium hydride, N,N-dimethylformamide, 47.0 mM, 25.0 °C, 3.0 h): 63% |
| CCOc1ccc(Cc2cc3c(cc2Cl)OC/C=C\COC[C@H]2O[C@@H]3[C@H](O)[C@@H](O)[C@@H]2O)cc1 [Example 1, (8R,9S,10R,11R,12S)-15-Chloro-14-(4-ethoxybenzyl)-2,5,7,8,9,10,11,12-octahydro-2H-8,12-epoxybenzo[g][1,6]dioxacyclotetradecine-9,10,11-triol] | 0.974 | – |

Continued, in another order:

| IC50 (human SGLT2) [nM] | SMILES | also measured |
| --- | --- | --- |
| 1.35 | CSc1ccc(Cc2cc3c(cc2Cl)OCCCCOC[C@H]2O[C@@H]3[C@H](O)[C@@H](O)[C@@H]2O)cc1 [Example 11, (8R,9S,10R,11R,12S)-15-Chloro-14-(4-(methylthio)benzyl)-2,3,4,5,7,8,9,10,11,12-decahydro-8,12-epoxybenzo[g][1,6]dioxacyclotetradecine-9,10,11-triol] | – |
| 1.4 | CCc1ccc(Cc2cc3c(cc2Cl)OCCCCCCOC[C@H]2O[C@@H]3[C@H](O)[C@@H](O)[C@@H]2O)cc1 [Example 10, (10R,11S,12R,13R,14S)-17-Chloro-16-(4-ethylbenzyl)-2,3,4,5,6,7,9,10,11,12,13,14-dodecahydro-10,14-epoxybenzo[i][1,8]dioxacyclohexadecine-11,12,13-triol] | – |
| 2.3 | CCOc1ccc(Cc2cc3c(cc2Cl)OC[C@H]2C[C@H]2COC[C@H]2O[C@@H]3[C@H](O)[C@@H](O)[C@@H]2O)cc1 [Example 15, (4R,5S,6R,7R,8S)-11-Chloro-10-(4-ethoxybenzyl)-(1aR,14aS)-1a,2,4,5,6,7,8,9,10-octahydro-1H-4,8-epoxybenzo[g]cyclopropa[c][1,6]dioxacyclotetradecine-5,6,7-triol] | – |
| 1.38 | O[C@@H]1[C@@H](O)[C@H]2O[C@H](COCCCCCOc3cc(Cl)c(Cc4ccc5c(c4)OCCO5)cc32)[C@H]1O [Example 14, (9R,10S,11R,12R,13S)-16-Chloro-15-((2,3-dihydrobenzo[b][1,4]dioxin-6-yl)-methyl)-3,4,5,6,8,9,10,11,12,13-decahydro-2H-9,13-epoxybenzo[h][1,7]dioxacyclopentadecine-10,11,12-triol] | – |
| 1.38 | CCc1ccc(Cc2cc3c(cc2Cl)OCCCCCOC[C@H]2O[C@@H]3[C@H](O)[C@@H](O)[C@@H]2O)cc1 [Example 9, (9R,10S,11R,12R,13S)-16-Chloro-15-(4-ethylbenzyl)-3,4,5,6,8,9,10,11,12,13-decahydro-2H-9,13-epoxybenzo[h][1,7]dioxacyclopentadecine-10,11,12-triol] | – |
| 14 | CCOc1ccc(Cc2cc3c(cc2Cl)OC[C@@H]2C[C@@H]2COC[C@H]2O[C@@H]3[C@H](O)[C@@H](O)[C@@H]2O)cc1 [Example 16, (4R,5S,6R,7R,8S)-11-Chloro-10-(4-ethoxybenzyl)-(1aS,14aR)-1a,2,4,5,6,7,8,9,10-octahydro-1H-4,8-epoxybenzo[g]cyclopropa[c][1,6]dioxacyclotetradecine-5,6,7-triol] | – |
| 3.65 | O[C@@H]1[C@@H](O)[C@H]2O[C@H](COCCCCOc3cc(Cl)c(Cc4ccc5c(c4)OCCO5)cc32)[C@H]1O [Example 13, (8R,9S,10R,11R,12S)-15-Chloro-14-((2,3-dihydrobenzo[b][1,4]dioxin-6-yl)-methyl)-2,3,4,5,7,8,9,10,11,12-decahydro-8,12-epoxybenzo[g][1,6]dioxacyclotetradecine-9,10,11-triol] | – |
| 0.778 | CSc1ccc(Cc2cc3c(cc2Cl)OCCCCCOC[C@H]2O[C@@H]3[C@H](O)[C@@H](O)[C@@H]2O)cc1 [Example 12, (9R,10S,11R,12R,13S)-16-Chloro-15-(4-(methylthio)benzyl)-3,4,5,6,8,9,10,11,12,13-decahydro-2H-9,13-epoxybenzo[h][1,7]dioxacyclopentadecine-10,11,12-triol] | – |
